Laboratory results as given in US12570662B2, “Substituted pyrrolo[1,2-b]pyridazines as bifunctional degraders of interleukin-1 receptor-associated kinases” (Nurix Therapeutics, Inc., priority 2021, dated 2026).

Target: T1, IRAK4 (Homo sapiens, UniProt Q9NWZ3)
T1 construct: C-terminal HiBiT-tagged Jurkat cells (polyclonal cell line or clone 8D5); endogenous in cells; host or cells: Jurkat cells (polyclonal cell line or clone 8D5), HiBiT-tagged
T1 sequence (Q9NWZ3 1-460): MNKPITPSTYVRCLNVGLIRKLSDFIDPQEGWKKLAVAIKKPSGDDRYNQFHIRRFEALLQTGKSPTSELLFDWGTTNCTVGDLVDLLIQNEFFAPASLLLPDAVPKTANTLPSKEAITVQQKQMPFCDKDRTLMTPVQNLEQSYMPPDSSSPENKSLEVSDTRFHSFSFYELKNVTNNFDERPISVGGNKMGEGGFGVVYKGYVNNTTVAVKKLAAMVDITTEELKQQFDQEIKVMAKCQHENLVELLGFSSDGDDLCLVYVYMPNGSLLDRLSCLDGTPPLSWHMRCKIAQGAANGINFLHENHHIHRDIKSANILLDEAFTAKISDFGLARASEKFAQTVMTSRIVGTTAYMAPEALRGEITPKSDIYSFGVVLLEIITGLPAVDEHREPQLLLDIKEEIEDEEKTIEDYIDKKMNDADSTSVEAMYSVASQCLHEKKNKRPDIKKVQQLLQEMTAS
Assay: IRAK4 Degradation HiBit Assay
Type: cell-based
Settings: C-terminal HiBiT-tagged Jurkat cells, 4 hrs incubation; for DC50: % IRAK4 remaining, four-parameter fit (IC50 used as DC50); for Dmax: from fit of % IRAK4 remaining, read-out: Dmax
Procedure: Compound dilution series (11-point, 3.16-fold dilutions in DMSO, columns 1-11 and 12-22) at 500× the final required concentrations were prepared in Labcyte LDV 384-well plates (cat. no. LP-0200) using a Labcyte Echo 550 Liquid Handler. The 500× solutions ranged from 5 mM to 0.5 μM (final assay concentration range 10 μM to 0.1 nM). Using the Echo, the 500× solutions were stamped into white, 384-well assay plates (Corning, cat. no. 3570) at 60 nL/well. The following assay plate controls were also stamped at 60 nL/well: DMSO in wells E23-P23 (NC, Negative Control, maximum signal), 5 mM solution control compound al in wells A23-D23 and M24-P24 (AC, Active Control, minimum signal/background, 10 μM final assay concentration), control compound al dilution series in wells […] (12-point, 4-fold dilutions). C-terminal HiBiT-tagged Jurkat cells (polyclonal cell line or clone 8D5) were plated at 1×10^6 cells/mL, 30 μL/well (3×10^4 cells/well) in complete RPMI (10% FBS, 1% L-glutamine). Cells were incubated for 4 hrs at 32° C./6% CO2. Compound al has the following structure:
Following incubation, 30 μL of complete Nano-Glo HiBiT Lytic Detection Reagent (Nano-Glo HiBiT Lytic Buffer with 1:50 Nano-Glo HiBiT Lytic Substrate and 1:100 LgBiT Protein; Promega cat. no. N3040) was added. Cells were further incubated for 10 min at room temperature (RT). Luminescence units (LU) were read on an EnVision plate reader (Perkin Elmer, 0.1 sec per well). Percent IRAK4 remaining per sample was calculated as follows: […]
Using Graphpad Prism, % IRAK4 remaining values were plotted as a function of compound concentration. To determine DC50 and Dmax values, resulting curves were fit to the Prism curve-fitting equation “log (inhibitor) vs response-Variable slope (four parameters)” (reported best fit value IC50 used as DC50). Table 1 summarizes the biological data of Compounds of Examples 1-137 and 142-145 obtained from the assays described herein.

Row | Compound | DC50 [nM] | Dmax [%]
1 | N#Cc1cnn2c(-c3cc(N[C@H]4CCOC4)c(-c4nnc(N5CCN(CC6CCN(c7ccc([C@H]8CCC(=O)NC8=O)cn7)CC6)CC5)s4)cn3)ccc2c1 (mixture of isomers) [Example 93, 7-[5-(5-{4-[(1-{5-[(3RS)-2,6-dioxopiperidin-3-yl]pyridin-2-yl}piperidin-4-yl)methyl]piperazin-1-yl}-1,3,4-thiadiazol-2-yl)-4-{[(3R)-oxolan-3-yl]amino}pyridin-2-yl]pyrrolo[1,2-b]pyridazine-3-carbonitrile] | 16 | 115
2 | N#Cc1cnn2c(-c3cc(NC4CCC(F)(F)CC4)c(-c4nnc(N5CCN(CC6CCN(c7ccc(C8CCC(=O)NC8=O)cn7)CC6)CC5)s4)cn3)ccc2c1 (racemic) [Example 1, rac-7-{4-[(4,4-difluorocyclohexyl)amino]-5-(5-{4-[(1-{5-[(3R)-2,6-dioxopiperidin-3-yl]pyridin-2-yl}piperidin-4-yl)methyl]piperazin-1-yl}-1,3,4-thiadiazol-2-yl)pyridin-2-yl}pyrrolo[1,2-b]pyridazine-3-carbonitrile] | 860 | 96
3 | CC(C)Nc1cc(-c2ccc3cc(C#N)cnn23)ncc1-c1nnc(N2CC3CCC(C2)N3CC2CCN(c3ccc([C@H]4CCC(=O)NC4=O)cn3)CC2)s1 (racemic) [Example 2, rac-7-[5-(5-{8-[(1-{5-[(3R)-2,6-dioxopiperidin-3-yl]pyridin-2-yl}piperidin-4-yl)methyl]-3,8-diazabicyclo[3.2.1]octan-3-yl}-1,3,4-thiadiazol-2-yl)-4-[(propan-2-yl)amino]pyridin-2-yl]pyrrolo[1,2-b]pyridazine-3-carbonitrile] | 53 | 67
4 | N#Cc1cnn2c(-c3cc(NC4CCOCC4)c(-c4nnc(N5CCN(CC6CCN(c7ccc(C8CCC(=O)NC8=O)c(F)c7)CC6)CC5)s4)cn3)ccc2c1 (racemic) [Example 3, rac-7-[5-(5-{4-[(1-{4-[(3R)-2,6-dioxopiperidin-3-yl]-3-fluorophenyl}piperidin-4-yl)methyl]piperazin-1-yl}-1,3,4-thiadiazol-2-yl)-4-[(oxan-4-yl)amino]pyridin-2-yl]pyrrolo[1,2-b]pyridazine-3-carbonitrile] | 55 | 93
5 | N#Cc1cnn2c(-c3cc(NC4CCOCC4)c(-c4nnc(N5CCN(CC6CCN(c7ccc(C8CCC(=O)NC8=O)cc7F)CC6)CC5)s4)cn3)ccc2c1 (racemic) [Example 4, rac-7-[5-(5-{4-[(1-{4-[(3R)-2,6-dioxopiperidin-3-yl]-2-fluorophenyl}piperidin-4-yl)methyl]piperazin-1-yl}-1,3,4-thiadiazol-2-yl)-4-[(oxan-4-yl)amino]pyridin-2-yl]pyrrolo[1,2-b]pyridazine-3-carbonitrile] | 65 | 90
6 | CNc1cc(-c2ccc3cc(C#N)cnn23)ncc1-c1nnc([C@H]2CC[C@H](C(=O)N3CCc4cc([C@H]5CCC(=O)NC5=O)ccc4C3)CC2)s1 (racemic) [Example 5, 7-[4-(methylamino)-5-{5-[(1r,4r)-4-{6-[(3RS)-2,6-dioxopiperidin-3-yl]-1,2,3,4-tetrahydroisoquinoline-2-carbonyl}cyclohexyl]-1,3,4-thiadiazol-2-yl}pyridin-2-yl]pyrrolo[1,2-b]pyridazine-3-carbonitrile] | 21 | 79
7 | CNc1cc(-c2ccc3cc(C#N)cnn23)ncc1-c1nnc([C@H]2CC[C@H](CN3CCc4cc([C@H]5CCC(=O)NC5=O)ccc4C3)CC2)s1 (racemic) [Example 6, 7-[4-(methylamino)-5-{5-[(1r,4r)-4-({6-[(3RS)-2,6-dioxopiperidin-3-yl]-1,2,3,4-tetrahydroisoquinolin-2-yl}methyl)cyclohexyl]-1,3,4-thiadiazol-2-yl}pyridin-2-yl]pyrrolo[1,2-b]pyridazine-3-carbonitrile] | 70 | 36
